In patent publication US20220227796A1, “EGFR INHIBITORS, COMPOSITIONS AND METHODS THERE OF” (Betta Pharmaceuticals Co., Ltd., priority 2019, published 2022):
Counter-ions that a name gives are not always drawn. Like-named read-outs stand apart in the source and are kept apart here.

What was measured:
H1975(L858R/T790M) = assay: H1975 cells proliferation assay; format: cell-based; details: for IC50: Homo sapiens, read-out: H1975 IC50
Method: (§1) Test 3 H1975 and HCC827 Cells Proliferation Assay
(§2) a) The medium was preheated in a 37° C. water bath in advance.
(§3) b) Remove the cryogenic vials from the liquid nitrogen tank, quickly put it into a 37° C. water bath, and completely melt it in 1 min.
(§4) c) Transfer the cell suspension to a 15 mL centrifuge tube containing 8 mL medium, centrifuge 1000 rpm, 5 min.
(§5) d) Discard the supernatant, resuspend the cells in 1 mL medium, and transfer to a 75 cm^2 flask containing 15 mL medium, culture the cells in an incubator at 37° C., 5% CO2.
(§6) b) Collect cell to a 15 mL centrifuged tube, centrifuge at 1000 rpm for 5 min. Discard the supernatant, count, and make the cell density at 1×10^4 cells/mL, then place it in a 37° C., 5% CO2 incubator.
(§7) b) The above compound solution was diluted 1:20 times with culture medium to prepare a 10 fold working solution;
(§8) a) Take cells in log phase growth, centrifuge at 1000 rpm for 5 min, then resuspend the cells with culture medium, then count cells;
(§9) b) Cells were seeded to 96-well cell culture plate with density at 2000 cells/well (suitable for H1975 cell) and at 2500 cells/well (suitable for HCC827 cell);
(§10) The blank control well was a culture medium (0.5% DMSO);
(§11) b) The cells were incubated for an additional 72 h in the incubator.
(§12) a) Remove the 96-well cell culture plate and add 50 μl of CTG reagent (CellTiter Glo kit, promega, Cat #G7573).
(§13) b) Plate was shaked for 2 min and then let it cool for 10 min at room temperature.
(§14) c) The Luminescence signal value was read using a PerkinElmer reader.
(§15) Experimental Data Analysis
(§16) Data were analyzed using GraphPad Prism 6.0 software to obtain a fitted curve of compound activity.
(§17) Y=Bottom+(Top−Bottom)/(1+10^((Log IC50−X)*HillSlope));
(§18) The cells proliferation assay results are expressed with IC50, shown as Table 2.

HCC827(Δ19del) = assay: HCC827 cells proliferation assay; format: cell-based; details: Homo sapiens, read-out: HCC827 IC50
Method: as §1, §2, §3, §4, §5, §6, §7, §8, §9, §10, §11, §12, §13, §14, §15, §16, §17, §18

EGFR Δ19del/T790M/C797S = EGFR Δ19del/T790M/C797S (Homo sapiens, UniProt P00533, T790M/C797S, form not given); assay: Kinase assay (mobility shift) for EGFR Δ19del/T790M/C797S; format: biochemical; details: read-out: EGFR Δ 19del/T790M/C797S IC50
Sequence of EGFR Δ19del/T790M/C797S (P00533 with tags, fused parts or gaps DEL746-750/T790M/C797S, form open): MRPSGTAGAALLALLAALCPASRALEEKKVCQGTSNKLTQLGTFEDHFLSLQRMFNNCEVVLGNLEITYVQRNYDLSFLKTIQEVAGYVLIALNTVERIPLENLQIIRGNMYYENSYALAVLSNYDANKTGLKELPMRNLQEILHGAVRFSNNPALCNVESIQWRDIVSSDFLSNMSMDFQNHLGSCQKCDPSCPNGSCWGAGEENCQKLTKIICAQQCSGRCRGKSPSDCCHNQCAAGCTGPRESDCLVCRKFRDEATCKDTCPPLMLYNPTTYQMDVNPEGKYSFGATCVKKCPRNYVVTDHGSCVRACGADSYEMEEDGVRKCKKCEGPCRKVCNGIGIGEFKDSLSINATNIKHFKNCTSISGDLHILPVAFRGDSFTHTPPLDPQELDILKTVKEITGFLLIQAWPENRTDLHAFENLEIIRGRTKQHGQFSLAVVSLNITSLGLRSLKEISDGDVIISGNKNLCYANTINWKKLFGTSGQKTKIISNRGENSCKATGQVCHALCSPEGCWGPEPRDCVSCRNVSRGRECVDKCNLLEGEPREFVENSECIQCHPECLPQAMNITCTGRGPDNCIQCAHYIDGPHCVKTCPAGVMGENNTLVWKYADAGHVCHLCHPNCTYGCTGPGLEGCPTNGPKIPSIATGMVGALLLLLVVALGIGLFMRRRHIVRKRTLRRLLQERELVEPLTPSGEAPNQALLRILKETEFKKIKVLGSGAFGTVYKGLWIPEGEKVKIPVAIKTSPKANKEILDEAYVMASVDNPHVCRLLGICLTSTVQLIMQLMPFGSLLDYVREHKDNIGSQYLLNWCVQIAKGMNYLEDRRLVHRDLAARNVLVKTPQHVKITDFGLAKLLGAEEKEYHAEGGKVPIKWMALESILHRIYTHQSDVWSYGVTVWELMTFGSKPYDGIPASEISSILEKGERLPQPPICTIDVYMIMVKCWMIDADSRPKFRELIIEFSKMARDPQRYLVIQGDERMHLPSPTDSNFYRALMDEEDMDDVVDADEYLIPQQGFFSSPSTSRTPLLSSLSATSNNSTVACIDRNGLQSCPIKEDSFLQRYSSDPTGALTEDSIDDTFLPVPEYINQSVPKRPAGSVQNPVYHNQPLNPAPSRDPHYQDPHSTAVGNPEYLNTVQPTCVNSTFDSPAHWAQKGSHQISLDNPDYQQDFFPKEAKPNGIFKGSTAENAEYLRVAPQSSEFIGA
Method: (§19) Enzyme reaction protocol are as followed:
(§20) 1. Preparing 1* Kinase buffer as followed.
(§21) 2. Preparing Compound Concentration Gradient: Compounds were tested at a concentration of 300 nM, diluted to 100-fold final concentration in 100% DMSO solution in 96-well plates, and compounds were diluted 3 times with Precision, 10 concentrations. Each concentration of the compound was then further diluted to a 5-fold final concentration of the intermediate dilution solution using 1* Kinase buffer.
(§22) 3. 5 μL of each of the prepared intermediate dilution compounds was separately added to the compound wells of the 384-well plate, and each concentration was tested for duplicate wells; 5 μL of 5% DMSO was added to the negative control wells and the positive control wells, respectively.
(§23) 4. 2.5-fold final concentration of the kinase solution was prepared using 1*Kinase buffer.
(§24) 6. Centrifuge at 1000 rpm for 30 seconds, shake the reaction plate and incubate for 10 minutes at room temperature.
(§25) 8. 10 μL of a 2.5-fold final concentration of a mixed solution of ATP and a substrate was added to initiate the reaction.
(§26) 9. Centrifuge the 384-well plate at 1000 rpm for 30 seconds, mix by shaking, and incubate at room temperature for the corresponding time.
(§27) 10. Add 30 μL of the stop solution to stop the kinase reaction, centrifuge at 1000 rpm for 30 seconds, and mix by shaking.
(§28) 11. Read the conversion rate with Caliper EZ Reader.
(§29) Convert conversion values to inhibition values:
(§30) Percent inhibition=(max−conversion % sample)/(max−min)*100.
(§31) “max” stands for the mean value of the positive control well ratio; “min” stands for the mean value of the negative control well; conversion % sample: sample conversion reading.
(§32) Fit the data in log(inhibitor) vs. response Variable slope of GraphPad Prism 5 to obtain IC50 values.
(§33) Equation used is: Y=Bottom+(Top−Bottom)/(1+(IC50/X)*HillSlope)

EGFR L858R = EGFR L858R (Homo sapiens, UniProt P00533, L858R); assay: Kinase assay (mobility shift) for EGFR L858R; format: biochemical
Sequence of EGFR L858R (P00533 25-1210 L858R): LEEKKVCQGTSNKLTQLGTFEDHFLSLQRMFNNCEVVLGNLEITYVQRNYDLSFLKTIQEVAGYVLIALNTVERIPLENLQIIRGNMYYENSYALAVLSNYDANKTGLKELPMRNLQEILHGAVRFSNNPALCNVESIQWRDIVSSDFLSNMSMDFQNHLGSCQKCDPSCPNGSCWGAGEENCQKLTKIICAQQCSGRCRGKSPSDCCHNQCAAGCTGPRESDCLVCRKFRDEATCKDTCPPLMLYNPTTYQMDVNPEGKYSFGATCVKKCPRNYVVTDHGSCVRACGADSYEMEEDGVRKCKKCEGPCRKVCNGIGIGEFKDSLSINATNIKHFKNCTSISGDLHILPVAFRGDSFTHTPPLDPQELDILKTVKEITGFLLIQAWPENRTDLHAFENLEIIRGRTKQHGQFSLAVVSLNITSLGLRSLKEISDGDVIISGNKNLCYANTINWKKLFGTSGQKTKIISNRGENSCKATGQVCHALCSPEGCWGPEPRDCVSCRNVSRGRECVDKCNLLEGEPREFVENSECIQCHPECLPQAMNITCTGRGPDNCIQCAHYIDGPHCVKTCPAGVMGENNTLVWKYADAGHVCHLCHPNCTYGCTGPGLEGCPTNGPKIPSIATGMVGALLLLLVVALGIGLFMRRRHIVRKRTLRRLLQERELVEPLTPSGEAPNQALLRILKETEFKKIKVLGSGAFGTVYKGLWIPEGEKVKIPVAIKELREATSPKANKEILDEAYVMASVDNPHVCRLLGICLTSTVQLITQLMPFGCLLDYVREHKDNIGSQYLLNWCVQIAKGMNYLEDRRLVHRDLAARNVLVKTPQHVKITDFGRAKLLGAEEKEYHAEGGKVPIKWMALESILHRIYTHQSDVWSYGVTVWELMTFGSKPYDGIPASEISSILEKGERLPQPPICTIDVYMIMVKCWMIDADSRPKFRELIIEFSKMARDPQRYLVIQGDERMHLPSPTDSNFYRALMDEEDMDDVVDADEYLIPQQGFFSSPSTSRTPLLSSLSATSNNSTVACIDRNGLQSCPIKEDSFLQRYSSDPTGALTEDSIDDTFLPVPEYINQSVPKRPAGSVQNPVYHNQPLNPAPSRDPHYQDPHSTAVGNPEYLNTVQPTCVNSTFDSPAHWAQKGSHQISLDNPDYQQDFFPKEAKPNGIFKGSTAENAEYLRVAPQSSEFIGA
Method: as §19, §20, §21, §22, §23, §24, §25, §26, §27, §28, §29, §30, §31, §32, §33

EGFR T790M/L858R = EGFR T790M/L858R (Homo sapiens, UniProt P00533, L858R/T790M); assay: Kinase assay (mobility shift) for EGFR T790M/L858R; format: biochemical
Sequence of EGFR T790M/L858R (P00533 25-1210 T790M/L858R): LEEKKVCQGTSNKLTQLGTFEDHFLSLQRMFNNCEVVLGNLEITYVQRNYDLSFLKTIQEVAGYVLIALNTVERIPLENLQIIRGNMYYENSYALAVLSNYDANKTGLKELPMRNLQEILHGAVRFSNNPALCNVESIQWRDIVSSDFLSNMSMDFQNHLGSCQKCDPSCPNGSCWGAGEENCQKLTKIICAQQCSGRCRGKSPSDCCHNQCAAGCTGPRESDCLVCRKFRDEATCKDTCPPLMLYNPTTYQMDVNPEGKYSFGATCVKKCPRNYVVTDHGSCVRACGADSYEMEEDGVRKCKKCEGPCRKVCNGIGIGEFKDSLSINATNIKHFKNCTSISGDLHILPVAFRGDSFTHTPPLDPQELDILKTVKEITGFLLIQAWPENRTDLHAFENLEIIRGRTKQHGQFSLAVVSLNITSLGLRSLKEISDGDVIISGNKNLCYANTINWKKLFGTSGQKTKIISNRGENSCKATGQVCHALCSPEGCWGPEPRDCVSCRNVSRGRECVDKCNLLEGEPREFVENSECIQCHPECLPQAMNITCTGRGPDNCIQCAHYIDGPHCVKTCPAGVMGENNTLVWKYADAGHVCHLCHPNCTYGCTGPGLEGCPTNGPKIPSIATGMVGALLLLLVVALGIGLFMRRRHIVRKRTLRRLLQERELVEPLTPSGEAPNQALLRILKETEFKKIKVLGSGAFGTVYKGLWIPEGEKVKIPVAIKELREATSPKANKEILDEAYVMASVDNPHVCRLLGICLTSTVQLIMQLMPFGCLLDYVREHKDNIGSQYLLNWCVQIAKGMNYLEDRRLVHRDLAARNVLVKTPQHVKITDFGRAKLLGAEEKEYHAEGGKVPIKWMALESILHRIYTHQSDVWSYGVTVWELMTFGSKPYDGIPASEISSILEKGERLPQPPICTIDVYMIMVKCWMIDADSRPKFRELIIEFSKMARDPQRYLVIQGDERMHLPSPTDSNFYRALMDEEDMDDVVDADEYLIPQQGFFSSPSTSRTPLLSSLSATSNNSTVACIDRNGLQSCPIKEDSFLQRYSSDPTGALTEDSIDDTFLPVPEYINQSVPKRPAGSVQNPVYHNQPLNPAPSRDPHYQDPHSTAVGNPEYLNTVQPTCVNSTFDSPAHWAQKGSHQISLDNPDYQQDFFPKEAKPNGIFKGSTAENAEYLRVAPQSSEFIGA
Method: as §19, §20, §21, §22, §23, §24, §25, §26, §27, §28, §29, §30, §31, §32, §33

[1] = NCI-H1975, cell proliferation, 72 h, CellTiter Glo, class symbols
[2] = HCC827, cell proliferation, 72 h, CellTiter Glo, class symbols

Compound	IC50 (EGFR Δ19del/T790M/C797S) [nM]	IC50 (EGFR L858R) [nM]	IC50 (EGFR T790M/L858R) [nM]	IC50 (H1975(L858R/T790M); [1]) [nM]	IC50 (HCC827(Δ19del); [2]) [nM]	IC50 (H1975(L858R/T790M); NCI-H1975, 72 h) [nM]	inhibition of double mutant (L858R/T790M) (H1975(L858R/T790M); summary in words of Table 2)	IC50 (HCC827(Δ19del); HCC827, 72 h) [nM]
C=CC(=O)Nc1cc(Nc2nccc(-c3cn(C)c4ccccc34)n2)c(OC)cc1N(C)CCN(C)C [Comparative compound B, reference compound]	–	–	–	–	–	< 10	higher inhibition	< 10
C=CC(=O)Nc1cc(Nc2ncc(Br)c(Nc3ccc4nccnc4c3P(C)(C)=O)n2)c(OC)cc1N1CCC(N2CCN(C)CC2)CC1 [Compound 13, N-(5-((5-bromo-4-((5-(dimethylphosphoryl)quinoxalin-6-yl)amino)pyrimidin-2-yl)amino)-4-methoxy-2-(4-(4-methylpiperazin-1-yl)piperidin-1-yl)phenyl)acrylamide]	–	–	–	10 to 50	10 to 50	–	–	–
C=CC(=O)Nc1cc(Nc2ncc(C)c(Nc3ccccc3P(C)(C)=O)n2)c(OC)cc1N1CCC(N2CCN(C)CC2)CC1 [Compound 22, N-(5-((4-((2-(dimethylphosphoryl)phenyl)amino)-5-methylpyrimidin-2-yl)amino)-4-methoxy-2-(4-(4-methylpiperazin-1-yl)piperidin-1-yl)phenyl)acrylamide]	< 10	10 to 100	< 10	–	< 10	–	–	–
C=CC(=O)Nc1cc(Nc2ncc(Cl)c(Nc3ccccc3P(C)(C)=O)n2)c(OC)cc1N1CCC(N2CCN(C)CC2)CC1 [Compound 24, N-(5-((5-chloro-4-((2-(dimethylphosphoryl)phenyl)amino)pyrimidin-2-yl)amino)-4-methoxy-2-(4-(4-methylpiperazin-1-yl)piperidin-1-yl)phenyl)acrylamide]	< 10	10 to 100	< 10	–	10 to 50	–	–	–
C=CC(=O)Nc1cc(Nc2ncc(Cl)c(Nc3ccccc3P(C)(C)=O)n2)c(OC)cc1N(C)CCN(C)C [Compound 25, N-(5-((5-chloro-4-((2-(dimethylphosphoryl)phenyl)amino)pyrimidin-2-yl)amino)-2-((2-(dimethylamino)ethyl)(methyl)amino)-4-methoxyphenyl)acrylamide]	–	–	–	–	< 10	–	–	–
C=CC(=O)Nc1cc(Nc2ncc(F)c(Nc3ccccc3P(C)(C)=O)n2)c(OC)cc1N(C)CCN(C)C [Compound 27, N-(2-((2-(dimethylamino)ethyl)(methyl)amino)-5-((4-((2-(dimethylphosphoryl)phenyl)amino)-5-fluoropyrimidin-2-yl)amino)-4-methoxyphenyl)acrylamide]	–	–	–	< 10	< 10	–	–	–
C=CC(=O)Nc1cc(Nc2ncc(F)c(Nc3ccccc3P(C)(C)=O)n2)c(OC)cc1N1CCC(N2CCN(C)CC2)CC1 [Compound 28, N-(5-((4-((2-(dimethylphosphoryl)phenyl)amino)-5-fluoropyrimidin-2-yl)amino)-4-methoxy-2-(4-(4-methylpiperazin-1-yl)piperidin-1-yl)phenyl)acrylamide]	10 to 100	10 to 100	10 to 100	–	10 to 50	–	–	–
C=CC(=O)Nc1cc(Nc2nccc(Nc3ccccc3P(C)(C)=O)n2)ccc1N1CCC(N2CCN(C)CC2)CC1 [Compound 38, N-(5-((4-((2-(dimethylphosphoryl)phenyl)amino)pyrimidin-2-yl)amino)-2-(4-(4-methylpiperazin-1-yl)piperidin-1-yl)phenyl)acrylamide]	10 to 100	10 to 100	10 to 100	–	–	–	–	–
C=CC(=O)Nc1cc(Nc2nccc(Nc3ccccc3P(C)(C)=O)n2)c(OC)cc1N(C)CCN(C)C [Compound 39, N-(2-((2-(dimethylamino)ethyl)(methyl)amino)-5-((4-((2-(dimethylphosphoryl)phenyl)amino)pyrimidin-2-yl)amino)-4-methoxyphenyl)acrylamide]	–	–	–	10 to 50	< 10	–	–	–
C=CC(=O)Nc1cc(Nc2nccc(Nc3ccccc3P(C)(C)=O)n2)c(OC)cc1N1CCC(N2CCN(C)CC2)CC1 [Compound 40, N-(5-((4-((2-(dimethylphosphoryl)phenyl)amino)pyrimidin-2-yl)amino)-4-methoxy-2-(4-(4-methylpiperazin-1-yl)piperidin-1-yl)phenyl)acrylamide]	10 to 100	10 to 100	10 to 100	–	–	–	–	–

Second part, led by results:

IC50 (EGFR Δ19del/T790M/C797S) [nM]	IC50 (EGFR L858R) [nM]	IC50 (EGFR T790M/L858R) [nM]	IC50 (H1975(L858R/T790M); [1]) [nM]	IC50 (HCC827(Δ19del); [2]) [nM]	Compound	IC50 (H1975(L858R/T790M); NCI-H1975, 72 h) [nM]	inhibition of double mutant (L858R/T790M) (H1975(L858R/T790M); summary in words of Table 2)	IC50 (HCC827(Δ19del); HCC827, 72 h) [nM]
< 10	10 to 100	< 10	–	–	C=CC(=O)Nc1cc(Nc2ncc(Cl)c(Nc3ccccc3P(C)(C)=O)n2)ccc1N1CC2(CCC(N(C)C)CC2)C1 [Compound 2, N-(5-((5-chloro-4-((2-(dimethylphosphoryl)phenyl)amino)pyrimidin-2-yl)amino)-2-(7-(dimethylamino)-2-azaspiro[3.5]nonan-2-yl)phenyl)acrylamide]	–	–	–
< 10	10 to 100	< 10	–	–	C=CC(=O)Nc1cc(Nc2ncc(Cl)c(Nc3ccccc3P(C)(C)=O)n2)ccc1N1CC2(CC(N(C)C)C2)C1 [Compound 3, N-(5-((5-chloro-4-((2-(dimethylphosphoryl)phenyl)amino)pyrimidin-2-yl)amino)-2-(6-(dimethylamino)-2-azaspiro[3.3]heptan-2-yl)phenyl)acrylamide]	–	–	–
< 10	10 to 100	< 10	–	–	C=CC(=O)Nc1cc(Nc2nccc(Nc3ccccc3P(C)(C)=O)n2)ccc1N1CCC2(CC1)CC(N(C)C)C2 [Compound 4, N-(2-(2-(dimethylamino)-7-azaspiro[3.5]nonan-7-yl)-5-((4-((2-(dimethylphosphoryl)phenyl)amino)pyrimidin-2-yl)amino)phenyl)acrylamide]	–	–	–
< 10	10 to 100	< 10	< 10	10 to 50	C=CC(=O)Nc1cc(Nc2ncc(Cl)c(Nc3ccccc3P(C)(C)=O)n2)c(OC)cc1N1CCC2(CC1)CC(N(C)C)C2 [Compound 5, N-(5-((5-chloro-4-((2-(dimethylphosphoryl)phenyl)amino)pyrimidin-2-yl)amino)-2-(2-(dimethylamino)-7-azaspiro[3.5]nonan-7-yl)-4-methoxyphenyl)acrylamide]	–	–	–
< 10	< 10	< 10	10 to 50	10 to 50	C=CC(=O)Nc1cc(Nc2ncc(Cl)c(Nc3ccccc3P(C)(C)=O)n2)ccc1N1CCC2(CC1)CN(C)C2 [Compound 14, N-(5-((5-chloro-4-((2-(dimethylphosphoryl)phenyl)amino)pyrimidin-2-yl)amino)-2-(2-methyl-2,7-diazaspiro[3.5]nonan-7-yl)phenyl)acrylamide hydrochloric acid salt]	–	–	–
< 10	10 to 100	< 10	–	–	C=CC(=O)Nc1cc(Nc2ncc(Cl)c(Nc3ccccc3P(C)(C)=O)n2)c(OC)cc1N1CC2(CCC(N(C)C)CC2)C1 [Compound 26, N-(5-((5-chloro-4-((2-(dimethylphosphoryl)phenyl)amino)pyrimidin-2-yl)amino)-2-(7-(dimethylamino)-2-azaspiro[3.5]nonan-2-yl)-4-methoxyphenyl)acrylamide]	–	–	–
–	–	–	10 to 50	10 to 50	C=CC(=O)Nc1cc(Nc2ncc(Cl)c(Nc3ccccc3P(C)(C)=O)n2)c(C)cc1N1CCC2(CC1)CC(N(C)C)C2 [Compound 31, N-(5-((5-chloro-4-((2-(dimethylphosphoryl)phenyl)amino)pyrimidin-2-yl)amino)-2-(2-(dimethylamino)-7-azaspiro[3.5]nonan-7-yl)-4-methylphenyl)acrylamide]	–	–	–
